Source: BindingDB's records for patent US11401286 (Tetra Discovery Partners, LLC, 2022)

Legend:
[1] = molecular target: Isoform 7 of cAMP-specific 3',5'-cyclic phosphodiesterase 4D (Human, UniProt Q08499); experiment: Kinetic Assay
[2] = molecular target: cAMP-specific 3',5'-cyclic phosphodiesterase 4B [S133D] (Human, UniProt Q07343, S133D); experiment: Kinetic Assay
cAMP-specific 3',5'-cyclic phosphodiesterase 4B [S133D], sequence (Q07343 whole entry S133D): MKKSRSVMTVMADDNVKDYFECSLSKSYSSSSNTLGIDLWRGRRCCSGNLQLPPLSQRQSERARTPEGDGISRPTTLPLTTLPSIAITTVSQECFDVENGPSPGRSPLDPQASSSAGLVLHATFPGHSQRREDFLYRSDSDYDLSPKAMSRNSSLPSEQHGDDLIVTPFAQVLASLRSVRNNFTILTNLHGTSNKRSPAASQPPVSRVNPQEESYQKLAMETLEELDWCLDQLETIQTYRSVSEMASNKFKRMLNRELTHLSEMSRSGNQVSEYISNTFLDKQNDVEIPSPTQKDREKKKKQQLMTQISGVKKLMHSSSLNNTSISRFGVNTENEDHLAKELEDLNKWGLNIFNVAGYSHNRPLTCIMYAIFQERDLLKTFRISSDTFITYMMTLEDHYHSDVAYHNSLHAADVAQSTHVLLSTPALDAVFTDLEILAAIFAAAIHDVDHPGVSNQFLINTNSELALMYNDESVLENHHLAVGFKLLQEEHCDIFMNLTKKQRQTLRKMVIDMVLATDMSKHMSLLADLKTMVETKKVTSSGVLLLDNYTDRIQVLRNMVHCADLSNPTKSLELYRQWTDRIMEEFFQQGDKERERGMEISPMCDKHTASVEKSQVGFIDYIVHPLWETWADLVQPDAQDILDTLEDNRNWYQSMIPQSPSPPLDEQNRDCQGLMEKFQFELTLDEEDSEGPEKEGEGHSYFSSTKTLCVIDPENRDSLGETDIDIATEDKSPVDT

Isoform 7 of cAMP-specific 3',5'-cyclic phosphodiesterase 4D, sequence (Q08499 as listed by the source): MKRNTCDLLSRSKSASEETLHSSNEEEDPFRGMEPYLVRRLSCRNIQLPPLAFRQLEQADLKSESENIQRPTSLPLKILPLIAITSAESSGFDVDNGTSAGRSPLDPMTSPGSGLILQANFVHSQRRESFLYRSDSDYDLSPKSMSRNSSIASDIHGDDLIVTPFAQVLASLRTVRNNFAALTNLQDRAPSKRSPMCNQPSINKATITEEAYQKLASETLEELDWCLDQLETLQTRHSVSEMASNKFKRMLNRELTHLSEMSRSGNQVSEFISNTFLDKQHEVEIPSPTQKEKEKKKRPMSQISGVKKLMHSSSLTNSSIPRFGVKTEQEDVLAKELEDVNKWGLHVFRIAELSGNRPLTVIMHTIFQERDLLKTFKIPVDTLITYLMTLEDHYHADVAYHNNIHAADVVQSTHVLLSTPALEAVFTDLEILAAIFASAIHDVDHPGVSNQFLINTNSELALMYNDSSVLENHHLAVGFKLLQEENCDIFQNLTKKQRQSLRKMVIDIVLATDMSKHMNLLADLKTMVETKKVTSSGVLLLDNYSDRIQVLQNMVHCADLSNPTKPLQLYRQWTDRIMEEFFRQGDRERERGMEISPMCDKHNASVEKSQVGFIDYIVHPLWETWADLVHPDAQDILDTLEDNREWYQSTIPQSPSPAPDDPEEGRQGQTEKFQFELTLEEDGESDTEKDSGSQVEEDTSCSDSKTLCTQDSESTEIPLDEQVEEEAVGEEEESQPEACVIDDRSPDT

IC50 [1] | IC50 [2] | Compound
> 1000 nM | > 1000 nM | Cc1nc(Nc2ccc(CC(=O)O)cc2)nc(-c2ccc(Cl)s2)n1 [US11401286, Example 22]
> 1000 nM | < 1000 nM | N#CC1CCC(c2cc(Nc3ccc(CC(N)=O)cc3)c3c(n2)CCC3)C1 (centres undefined) [US11401286, Example 138]
> 1000 nM | < 1000 nM | NC(=O)Cc1ccc(Nc2cc(C3CCCC3)nc3c2CCC3)cc1 [US11401286, Example 247]
– | < 1000 nM | CCc1c(C)nc(-c2ccc(Cl)s2)nc1Nc1ccc(Cn2nccn2)cc1 [US11401286, Example 300]

Compound | IC50 [1] | IC50 [2]
OCCc1ccc(Nc2cc(-c3cccc(Cl)c3)nc3c2CCC3)cn1 [US11401286, Example 90] | > 1000 nM | > 1000 nM
